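Each compound was tested at five concentrations against cells in 96-well plates for 48 hours. GI50: concentration for 50% inhibition of growth.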 The source made the active and inactive calls. No stated cut-off is given here; in the data, active = GI50 up to about 1.1 µM and inactive = higher.
What was measured:
Experiment in all cases: NCI anticancer screen, dose series, 48 h
[1] = system: MOLT-4
[2] = system: KM-20L2
[3] = system: OVCAR-3
[4] = system: SN12C
[5] = system: SK-MEL-28
[6] = system: K562
[7] = system: SR
[8] = system: EKVX
[9] = system: HOP-92
[10] = system: UO-31
[11] = system: SK-OV-3
[12] = system: OVCAR-8
[13] = system: IGROV-1
[14] = system: HCT-116
[15] = system: SF-268
[16] = system: HOP-62
[17] = system: Malme-3M
[18] = system: HCT-15
[19] = system: CAKI-1

Measured: GI50

O=C1N(c2ccc(Cl)cc2)C(=O)C2(SC=NN2Cc2ccccc2)N1c1ccc(Cl)cc1 (centres undefined)
inactive: [1] 7.87 µM | [2] > 100 µM | [3] 51.1 µM | [4] > 100 µM | [5] > 100 µM | [6] 9.59 µM | [7] 9.95 µM | [8] > 100 µM | [9] > 100 µM | [10] > 100 µM | [11] > 100 µM | [12] > 100 µM | [13] > 100 µM | [14] 9.18 µM | [15] > 100 µM | [16] > 100 µM | [17] > 100 µM

CN(C)C(=S)Nc1nnc(NC23CC4CC(CC(C4)C2)C3)s1.[O-][Cl+3]([O-])([O-])O
inactive: [1] 14.8 µM | [2] 11.1 µM | [3] 18.7 µM | [4] 15.3 µM | [5] 15 µM | [6] 15.8 µM | [7] 15.9 µM | [8] 23 µM | [10] 12.4 µM | [11] 43.8 µM | [12] 26.7 µM | [13] 30.1 µM | [14] 13.3 µM | [19] 20.1 µM | [15] 16.4 µM | [16] 18.6 µM | [17] 17.3 µM
13.6 µM: [18]

C/C(=N\NC(=S)NC(CCC(=O)O)C(=O)O)c1ccccn1 (centres undefined)
> 100 µM: [18]
inactive: [1] > 100 µM | [2] > 100 µM | [3] > 100 µM | [4] > 100 µM | [5] > 100 µM | [6] > 100 µM | [7] > 100 µM | [8] > 100 µM | [9] > 100 µM | [10] > 100 µM | [11] > 100 µM | [12] > 100 µM | [13] > 100 µM | [14] > 100 µM | [15] > 100 µM | [16] > 100 µM | [17] > 100 µM

O=C(CSc1nnc(-c2ccc(/N=C\c3ccc(Cl)cc3)cc2)o1)Nc1ccc([N+](=O)[O-])cc1
inactive: [1] 15.7 µM | [2] 27.2 µM | [4] 21.7 µM | [5] 18.5 µM | [6] 21.2 µM | [7] 19 µM | [8] > 100 µM | [10] 18.4 µM | [11] 35.9 µM | [12] 37.6 µM | [14] 2.58 µM | [15] 24.3 µM | [16] 32.1 µM | [17] 92.3 µM
18.4 µM: [18]

CC(C)C1=CC23CCC4C(C)(C(=O)O)CCCC4(C)C2CC1C1C(=O)N(c2ccccc2)C(=O)C13 (centres undefined)
inactive: [1] > 100 µM | [2] 39.6 µM | [3] 33.7 µM | [4] 45.9 µM | [5] 53.2 µM | [6] 69.8 µM | [7] > 100 µM | [9] 32.7 µM | [10] 43.7 µM | [11] 56.4 µM | [12] 64 µM | [13] 37.2 µM | [14] 39.1 µM | [19] > 100 µM | [15] 41.1 µM | [16] 51.3 µM | [17] 67.9 µM
30.9 µM: [18]

Cc1cc(Cl)ccc1NC(=O)C(=O)C(C(=O)c1ccc2ccccc2c1)C1OC(=O)c2ccccc21 (centres undefined)
18.7 µM: [18]
inactive: [2] 24 µM | [3] 9.98 µM | [4] 15.7 µM | [5] 9.79 µM | [6] 8.61 µM | [8] 29.2 µM | [9] 14.3 µM | [10] 12.9 µM | [11] 15.7 µM | [12] 14.1 µM | [13] 20.8 µM | [14] 9.4 µM | [19] 11.6 µM | [15] 4.08 µM | [16] 10.5 µM | [17] 10 µM

COC1=CC(=O)C(Br)=CC1=O
21.6 µM: [18]
inactive: [1] 3.3 µM | [2] 33.3 µM | [4] 18.5 µM | [5] 19.5 µM | [6] 3.06 µM | [8] 25.1 µM | [9] 15.9 µM | [10] 17.5 µM | [11] > 100 µM | [12] 26.9 µM | [13] 17.3 µM | [19] 18.4 µM | [15] 18.6 µM | [16] > 100 µM | [17] 21 µM

COC(=O)/C(=N\NC(=O)c1ccccc1O)C(C#N)c1ccc(Cl)cc1 (centres undefined)
inactive: [1] 31.4 µM | [2] 33.8 µM | [3] 29.9 µM | [4] 45.5 µM | [5] 28.3 µM | [6] 37.9 µM | [7] 37.3 µM | [8] 15.6 µM | [9] 89.7 µM | [10] 16.7 µM | [12] 28.1 µM | [13] 7.4 µM | [14] 30.3 µM | [15] 13.2 µM | [16] 14.6 µM | [17] 26.1 µM
33 µM: [18]

O=C(Nc1ccccc1)OCc1nc2c([nH]1)C(=O)C=CC2=O
inactive: [1] 2.32 µM | [2] 19.4 µM | [3] 16.7 µM | [4] 17.2 µM | [5] 15.6 µM | [6] 2.55 µM | [7] 19.5 µM | [8] 20.7 µM | [9] 24.6 µM | [10] 16.8 µM | [11] 15.9 µM | [12] 15.5 µM | [13] 16.9 µM | [14] 14.9 µM | [16] > 100 µM | [17] 6.4 µM
active: [19] 0.35 µM
18.2 µM: [18]

CCC12C[N+]3([O-])CCc4c([nH]c5ccccc45)C(C(=O)OC)(c4cc5c(cc4OC)N(C)C4C(O)(C(=O)OC)C(OC(C)=O)C6(CC)C=CCN7CCC54C76)CC(C3)C1O2 (centres undefined)
active: [1] 0.406 µM | [2] 0.256 µM | [3] 0.337 µM | [5] 0.236 µM | [6] 0.207 µM | [8] 0.467 µM | [9] 0.594 µM | [11] 0.336 µM | [13] 0.968 µM | [14] 0.41 µM | [15] 0.675 µM
4.47 µM: [18]
inactive: [4] 2.33 µM | [10] 3.17 µM | [12] 2.67 µM | [19] 5.93 µM | [16] 23.7 µM | [17] 1.61 µM

O=C(CSc1nnc(-c2ccc(/N=C\c3ccc(Cl)cc3)cc2)o1)Nc1cccc([N+](=O)[O-])c1
inactive: [1] > 100 µM | [2] > 100 µM | [4] > 100 µM | [5] > 100 µM | [6] > 100 µM | [7] > 100 µM | [8] > 100 µM | [10] > 100 µM | [11] > 100 µM | [12] > 100 µM | [14] > 100 µM | [15] > 100 µM | [16] > 100 µM | [17] > 100 µM
> 100 µM: [18]

CC1(Cc2ccccc2)NC(=S)NC1=O (centres undefined)
inactive: [2] > 100 µM | [4] > 100 µM | [5] > 100 µM | [7] > 100 µM | [8] > 100 µM | [9] 3.03 µM | [10] > 100 µM | [12] > 100 µM | [19] > 100 µM | [15] > 100 µM | [16] > 100 µM | [17] > 100 µM

— ChEMBL document CHEMBL1201862, “PubChem BioAssay data set” (2004)
